Reference: patent US8114843B2, “Photoreactive regulator of protein function and methods of use thereof” (The Regents of the University of California, priority 2005, dated 2012)
Values after ≈ are worked out from the molar mass of the structure shown. “Also recorded” adds a separate entry of the source. Blank lines part the entries; values can stand above or below the molecule they belong to.

Tests used:
[1] = test system: cultured hippocampal neurons; assay: Live/Dead assay after PAL treatment; assay type: cell-based; conditions: 200 μM
Text: Live/Dead assay. After PAL treatment, hippocampal neurons were processed for the live dead assay (Molecular Probes) according to the manufacturer's instructions. Cells were counted in 4-8 fields for each treatment condition.

wild-type Shaker (E422) = biological target: T1, wild-type Shaker (E422) (Drosophila melanogaster, UniProt P08510, DEL6-46); assay: PAL photoswitching, whole-cell patch clamp in HEK293 cells; assay type: cell-based
T1 construct: expressed in transfected cells; host or cells: HEK293
T1 sequence (P08510 other isoform, or with tags, fused parts or gaps DEL6-46): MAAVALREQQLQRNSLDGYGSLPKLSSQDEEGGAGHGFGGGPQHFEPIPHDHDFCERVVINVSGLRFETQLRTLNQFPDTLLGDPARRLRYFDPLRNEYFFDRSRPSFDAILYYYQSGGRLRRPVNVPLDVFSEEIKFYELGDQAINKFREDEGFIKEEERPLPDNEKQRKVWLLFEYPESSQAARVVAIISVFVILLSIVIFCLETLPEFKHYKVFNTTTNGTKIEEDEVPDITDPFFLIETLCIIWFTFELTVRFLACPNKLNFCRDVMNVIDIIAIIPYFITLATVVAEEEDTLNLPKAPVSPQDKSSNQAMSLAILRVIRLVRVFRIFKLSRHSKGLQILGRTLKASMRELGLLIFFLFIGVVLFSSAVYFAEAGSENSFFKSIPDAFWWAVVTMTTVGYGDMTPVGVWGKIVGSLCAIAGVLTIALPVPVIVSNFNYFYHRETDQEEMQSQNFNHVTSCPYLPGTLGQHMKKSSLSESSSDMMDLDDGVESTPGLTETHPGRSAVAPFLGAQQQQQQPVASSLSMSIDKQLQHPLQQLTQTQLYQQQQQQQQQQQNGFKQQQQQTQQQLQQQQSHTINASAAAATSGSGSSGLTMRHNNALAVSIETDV
Procedure: Cell culture and transfection. HEK293 cells were grown in DMEM containing 5% fetal bovine serum, at 37° C., 7% CO2. For electrophysiology, cells were plated at 12×10^5 cells/cm^2 on poly-L-lysine coated coverslips and transfected using the calcium phosphate method. Recordings were performed 24-36 hours after transfection.
(§1) PAL attachment. HEK293 and hippocampal cells were rinsed in extracellular solution containing in mM: 138 NaCl, 1.5 KCl, 1.2 MgCl2, 2.5 CaCl2, 5 HEPES, 10 glucose and incubated at 37° C. in the dark with 200-250 μM PAL for 15 minutes. For slices, AAQ was diluted to 200 μM in aCSF and treatment was performed in the dark at room temperature for 10 minutes.
(§2) Electrophysiological recording. Recordings from HEK293 and hippocampal neurons were made in the whole-cell patch clamp configuration using a PC-501A amplifier (Warner Instruments). Pulse protocols and measurements were carried out with pCLAMP and a Digidata 1322 interface (Axon Instruments). For voltage-clamp experiment, cells were held at −70 mV. Data was recorded at 20 kHz and filtered at 2 kHz. Recording pipettes with 2.5-4 MΩ resistance were filled with intracellular solution containing in mM: 10 NaCl, 135 K-gluconate, 10 HEPES, 2 MgCl2, 2 MgATP, 1 EGTA, pH 7.4.
Illumination was provided using a xenon lamp (Sutter Instruments) with narrow band pass filters (380 BP10 for UV and 500 BP5 for visible light respectively). Excitation filters were changed using a lambda 10-2 filter changer (Sutter Instruments) controlled via pCLAMP software.
Percent photoswitching was defined as the difference between current in UV and visible light divided by current in UV. All data shown in bar graphs are averages±standard error of the mean.

Solubility = assay type: physicochemical; conditions: for solubility: read-out: solubility limit
Purkinje neurons = assay: Loose-patch extracellular recording in cerebellar slices; assay type: cell-based, rat; conditions: gabazine added
Procedure: Brain Slice Preparation. Parasagittal cerebellar slices were prepared using standard techniques approved by the UCLA Animal Care Committee. […] PAL attachment. […] For cerebellar slices, neuronal cell bodies were visualized using an upright microscope with a 40× water immersion lens and equipped with an infrared-DIC enhancement. Loose-patch extracellular recordings were performed using an Axopatch 200B amplifier (Axon Instruments). Electrophysiological recordings were filtered at 1 KHz and digitized at 2-4 KHz. Pipettes were typically 1.4-2.0 MΩ for recordings from PNs and 3.0-3.5 MΩ for interneurons and filled with aCSF. […] All recordings were performed at room temperature. […] Excitation filters were changed using a lambda 10-2 filter changer (Sutter Instruments) controlled via pCLAMP software.

[2] = test system: hippocampal pyramidal neurons transfected with the multiply-mutated Shaker channel; assay: Current clamp recordings from cultured hippocampal neurons treated with MAL-AZO-QA; assay type: cell-based, rat
Procedure: Primary dissociated hippocampal cultures were prepared from E18-19 Sprague-Dewey rat embryos and grown on glass cover slips in serum-containing media and incubated in 7% CO2 in air at 37° C. Cells were co-transfected with GFP along with the modified Shaker channel described above with additional L366A and V454L mutations. Transfections with Lipofectamine 2000™ were performed at 12-14 DIV. About 10% of the cultured neurons appeared GFP-positive at 2-3 days after transfection. Coverslips containing the neurons were treated at 37° C. for 15 min with 300 μM MAL-AZO-QA in an extracellular recording solution containing (in mM) 135 NaCl, 5 KCl, 1.2 MgCl2, 5 HEPES, 2.5 CaCl2, and 10 glucose at pH 7.4. Patch pipettes (7-10 MΩ) were filled with 10 NaCl, 135 K-gluconate, 10 HEPES, 2 MgCl2, 2 Mg-ATP, and 1 EGTA at pH 7.4. After washout of MAL-AZO-QA with extracellular solution, membrane potential was recorded at room temperature under whole-cell current clamp with an AXOPATCH 200A amplifier (Axon Instruments) and filtered at 10 kHz. Initial recordings were made at resting potential to evaluate the effects of light on spontaneous activity. In experiments where we wanted to quantify the effect of light on firing (e.g. FIG. 4b), cultures were treated with 6-cyano-7-nitroquinoxaline-2,3-dione (CNQX) (1 μM) and bicuculline (10 μM) to silence synaptic activity. Baseline currents were adjusted to set the membrane potential at −50 mV before depolarizing current steps ranging from 0.01-0.03 nA were applied to evoke action potentials. Cells were irradiated with a Lambda-LS illuminator containing a 125 watt xenon arc lamp (Sutter Instruments Company), equipped with narrow bandpass (+/−10 nm) filters through a Fluor 20×, 0.5 NA objective lens (Nikon). Variability among data is expressed as mean+/−SEM, unless noted otherwise.

[3] = biological target: Shaker H4 (Δ6-46, E422C, T449V) (Drosophila melanogaster, UniProt P08510, DEL6-46/E422C/T449V); assay: Patch recordings of MAL-AZO-QA-modified Shaker channels in Xenopus oocytes; assay type: cell-based
Shaker H4 (Δ6-46, E422C, T449V), sequence (P08510 other isoform, or with tags, fused parts or gaps DEL6-46/E422C/T449V): as the sequence (P08510 other isoform, or with tags, fused parts or gaps DEL6-46) above, with E381C, T408V counted along it
Procedure: Xenopus oocytes were injected with […] of mRNA encoding Shaker H4, with the following mutations: Δ6-46, E422C, T449V. […] Devitillenized oocytes were recorded from 2-10 days post-injection using standard patch-clamp methods. For outside-out patches, glass patch pipettes (2-4 MΩ) were filled with a solution containing (in mM) 100 KCl, 10 HEPES, 0.1 CaCl2, 0.5 MgCl2, and 10 EGTA, while the bath contained 10 KCl, 90 NaCl, 10 HEPES, 0.1 CaCl2, 0.5 MgCl2, and 10 EGTA. For inside-out patches, patch pipettes and bath both contained 100 KCl, 10 HEPES, 0.1 CaCl2, 0.5 MgCl2, and 10 EGTA. The pH of all solutions was 7.1. Solid MAL-AZO-QA was dissolved as a concentrated stock solution in DMSO and stored at −20° C. until the day of use. Stocks were diluted into oocyte bath solution to final concentrations of 10 μM or 100 μM. […] Pulse protocols and measurements were performed with pCLAMP software, a DigiData 1200 series interface, and a PC-505 amplifier (Warner Instruments). Samples were taken at 10 kHz and the data was filtered at 1 kHz. Patches were held at −90 mV, pulsed to −100 mV for 60 msec to monitor leak, and pulsed to −20 mV for 30-100 msec at 1 Hz to elicit Shaker currents. The peak of the Shaker currents was measured to minimize the contribution of slow inactivation. Patches with a leak conductance>100 pS were not included in analysis.
Discrete wavelengths of light (+/−10 nm) were focused on patches through a quartz coverslip with a Fluor 20×, 0.5 NA objective lens (Nikon). Output intensity was measured for wavelengths between 300 and 600 nm. The measured output intensities for wavelengths between 340-600 nm ranged from 0.324e-8 to 6.23e-8 W/cm^2. Differences in light intensities at different wavelengths were taken into account when determining action spectra for channel block and unblock.

[4] = test system: voltage-gated outward current (endogenous K+ channels) in cultured hippocampal neurons; assay: Photocontrol of K+ current in cultured hippocampal neurons; assay type: cell-based, rat; conditions: 200 μM, 15 min in the dark
Procedure: Hippocampal neurons were prepared from neonatal Sprague-Dawley rats according to standard procedures (Goslin) and grown on poly-L-lysine coated coverslips in MEM supplemented with 5% fetal bovine serum, B27 (Invitrogen), glutamine and serum extender (BD Biosciences). Animal care and experimental protocols were approved by the UC Berkeley Animal Care and Use Committee. Recordings were performed 9-16 days after plating. The Shaker construct also contains an N-terminal deletion (Δ6-46) to minimize fast inactivation.
as §1
as §2, with “Recording pipettes with 2.5-4 MΩ resistance were filled with intracellular solution containing in mM: 10 NaCl, 135 K-gluconate, 10 HEPES, 2 MgCl2, 2 MgATP, 1 EGTA, pH 7.4.” left out

hippocampal neurons = assay: Live-Dead viability/cytotoxicity assay after MAG exposure; conditions: 12 hours continuous exposure, several concentrations; listed as MAG
iGluR6 = biological target: T2, iGluR6 (Rattus norvegicus, UniProt P42260); assay: Calcium imaging of iGluR6 activity in HEK293 cells; assay type: cell-based
T2 construct: expressed in transfected cells; host or cells: HEK293
T2 sequence (P42260 32-908): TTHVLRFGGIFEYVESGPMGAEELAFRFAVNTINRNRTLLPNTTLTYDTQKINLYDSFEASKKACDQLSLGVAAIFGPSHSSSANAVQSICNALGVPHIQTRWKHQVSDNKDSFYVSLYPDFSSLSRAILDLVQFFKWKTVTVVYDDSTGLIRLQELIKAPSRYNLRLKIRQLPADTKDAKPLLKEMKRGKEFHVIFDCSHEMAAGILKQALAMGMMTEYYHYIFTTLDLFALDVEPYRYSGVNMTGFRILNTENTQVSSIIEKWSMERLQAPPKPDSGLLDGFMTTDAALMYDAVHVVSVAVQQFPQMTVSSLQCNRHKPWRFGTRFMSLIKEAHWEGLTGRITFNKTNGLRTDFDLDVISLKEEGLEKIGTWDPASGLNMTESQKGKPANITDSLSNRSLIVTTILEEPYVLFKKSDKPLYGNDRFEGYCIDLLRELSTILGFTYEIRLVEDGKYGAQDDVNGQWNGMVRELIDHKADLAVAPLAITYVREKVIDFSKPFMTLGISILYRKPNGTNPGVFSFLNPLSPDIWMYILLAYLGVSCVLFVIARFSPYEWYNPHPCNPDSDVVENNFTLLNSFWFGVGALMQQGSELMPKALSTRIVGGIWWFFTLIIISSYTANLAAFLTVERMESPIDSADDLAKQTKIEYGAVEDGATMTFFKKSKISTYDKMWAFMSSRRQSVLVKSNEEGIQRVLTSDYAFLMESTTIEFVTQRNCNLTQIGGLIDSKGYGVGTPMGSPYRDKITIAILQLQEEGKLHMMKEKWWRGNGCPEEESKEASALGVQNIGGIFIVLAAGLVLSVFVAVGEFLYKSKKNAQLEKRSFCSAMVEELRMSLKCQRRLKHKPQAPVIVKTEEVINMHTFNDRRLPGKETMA

[5] = Photostationary state determination by NMR; assay type: physicochemical; conditions: MAG-1 conjugated to β-mercaptoethanol, D2O
Procedure: Cis-trans photoisomerization of MAG-1 conjugated with β-mercaptoethanol (see Supplementary Methods online) was studied by ^1H NMR, with in situ irradiation of sample using a Polychrom V system monochromator (Till Photonics) containing a 150 W Xenon short arc lamp with an output range of 320-680 nm (29). The half-power bandwidth was 14 nm. A 500 μl aliquot of a 100 μM sample in D2O was prepared in a screw-capped 528-TR-7 NMR tube (Wilmad). A FT-600-UMT fiber optic cable (NA 0.39) (Thorlabs) was coupled at one end to the monochromator using a custom fitting and the other end inserted into the NMR tube a few millimeters above the solution. Each sample was irradiated at the desired wavelength for 30 minutes to reach the photostationary state and 480 scans were required to obtain reasonable signal-to-noise ratios. The output from the fiber optic cable between 340-480 nm ranged from 0.3-9.0 μW/cm^2. Data were processed by isolating aromatic cis-trans ^1H signals and summing their integrals to 1.0. All data were obtained in triplicate and averaged. This analysis will be detailed further in a future paper by Banghart, M. R. et al. (in preparation).

SMILES: CC[N+](CC)(CC)CC(=O)Nc1ccc(/N=N/c2ccc(NC(=O)CCl)cc2)cc1 [CAQ]
death of neurons ([1]; 15 min): ~10%
loss of neurons ([1]; 60 min): ~15%
light-sensitivity conferred on channel (wild-type Shaker (E422)): conferred light-sensitivity
water solubility compared with AAQ (Solubility): less water-soluble

solubility (Solubility): 4 mM (≈ 1010 µg/mL)
SMILES: O=c1[nH]c2cc([N+](=O)[O-])c([N+](=O)[O-])cc2[nH]c1=O [DNQX, 6,7-dinitroquinoxaline-2,3-[1H,4H]-dione, reference compound]

SMILES: COc1ccc(-c2ccc(=N)n(CCCC(=O)O)n2)cc1 [Gabazine, reference compound]
basal firing rate of Purkinje cells (Purkinje neurons): ~15 Hz

SMILES: CC[N+](CC)(CC)CC(=O)Nc1ccc(/N=N/c2ccc(NC(=O)CN3C(=O)C=CC3=O)cc2)cc1 [MAL-AZO-QA]
time to silence spontaneous action potentials ([2]; 390 nm light): ≤ 3 s
decrease in number of action potentials elicited by a depolarizing step ([2]; 390 nm light, n=4): 79%
onset of restored activity in the dark after silencing ([2]; dark): > 30 s
effect of light on treated neurons expressing GFP without the Shaker channels ([2]; n=4): no effect
wavelength most effective in unblocking channels ([3]; action spectrum, inside-out patches): 380 nm
return of unblocked channels to the blocked state in the dark ([3]; dark): > 5 min
τ1 of current block in dark (biexponential) ([3]; dark): 0.49 min
τ2 of current block in dark (biexponential) ([3]; dark): 4.79 min
current unblocked by ultraviolet light ([3]; inside-out patch, oocytes treated with 100 μM for 30 min): ≤ 1 nA
reduction of voltage-gated Shaker current ([3]; outside-out patch, 10 μM, over 4 min): > 60%
time for unblock and re-block to nearly reach steady-state ([3]; standard epifluorescence illumination): ≤ 5 s
percent of the outward current that could be photoswitched [4]: 2±5%

SMILES: N[C@@H](CC(CCCC(=O)NCC(=O)Nc1ccc(/N=N/c2ccc(NC(=O)CN3C(=O)C=CC3=O)cc2)cc1)C(=O)O)C(=O)O (stereo in doubt) [MAG-1]
cell death compared with controls (hippocampal neurons): no difference; also recorded: no increase in cell death
light sensitivity conferred (Ca2+ increase at 380 nm, decrease at 500 nm) (iGluR6; wildtype iGluR6 (WT)): not on wildtype iGluR6
fraction in the cis-state ([5]; 380 nm): 93.0±0.6%
fraction in the trans-state ([5]; 500 nm): 83.0±0.6%
solubility (Solubility): 0.2 mM (≈ 124 µg/mL)

SMILES: Cl.N[C@@H](C[C@@H](CCCC(=O)NCC(=O)Nc1ccccc1)C(=O)O)C(=O)O [tether model 3]
maximal response compared with saturating glutamate (iGluR6): similar
EC50 (iGluR6; FURA-2-AM calcium imaging, HEK293, read-out: EC50 for activating iGluR6): 180 µM
solubility (Solubility): 10 mM
